Source: publication PMC9108200, “Antiviral Activity of Selected Lamiaceae Essential Oils and Their Monoterpenes Against SARS-Cov-2” (Frontiers in Pharmacology, 2022)
Entries after “also recorded” stand apart in the source; their conditions may differ. Like-named read-outs stand apart in the source and are kept apart here.

Assays:
[1] = Cytotoxicity assay (MTS tetrazolium) on Vero 76 cells; conditions: African green monkey
[2] = test system: SARS-CoV-2; test: microbe, parasite or virus in culture; assay type: cell-based; conditions: for inhibition of SARS-CoV-2 by monoterpenes (in words): 72 h incubation
[3] = in vitro; conditions: African green monkey
[4] = Severe acute respiratory syndrome coronavirus 2, Vero 76, 72 h, monoterpenes, infected Vero 76 cells, 0.02 MOI, 72 h, MTT, tested 1,000–4.91 μM, mean ± SD, read-out: EC50 SARS-Cov2
[5] = monoterpenes, infected Vero 76 cells, 0.02 MOI, 72 h, MTT, tested 1,000–4.91 μM, mean ± SD, read-out: EC50 SARS-Cov2
[6] = Severe acute respiratory syndrome coronavirus 2, Vero 76, 72 h, read-out: EC50 SARS-Cov2, monoterpenes, infected Vero 76 cells, 0.02 MOI, 72 h, MTT, tested 1,000–4.91 μM, mean ± SD
[7] = read-out: EC50 SARS-Cov2, monoterpenes, infected Vero 76 cells, 0.02 MOI, 72 h, MTT, tested 1,000–4.91 μM, mean ± SD

SMILES | IC50 [1] [mM] | EC50 [2, 4] [µM] | IC50 [3] [µM] | inhibition of SARS-CoV-2 by monoterpenes (in words) ([2]; infected Vero 76 cells) | also measured
CC12CCC(CC1)C(C)(C)O2 [1,8-Cineol] | > 1 | > 100 | – | – | EC50 [2, 5]: 129 ± 15 µM
Cc1ccc(C(C)C)cc1O [Carvacrol] | – | – | 455 ± 31.1 | – | EC50 [2, 6]: 86.5 ± 12.7 µM; EC50 [2, 7]: 80.2 ± 6.07 µM; EC50 ([2]; read-out: EC50 SARS-Cov2, monoterpenes, infected Vero 76 cells, 0.02 MOI, 72 h, MTT, tested 1,000–4.91 μM, mean ± SD, listed as carvacrol): < 100 µM
C=C(C)C1CC=C(C)C(=O)C1 (centres unmarked) [Carvone] | > 1 | 80.2 ± 6.07 | – | – | EC50 [2, 5]: 86.5 ± 12.7 µM
CCN(CC)CCCC(C)Nc1ccnc2cc(Cl)ccc12 (centres unmarked) [Chloroquine, reference compound] | – | 7.57 ± 1.18 | > 1000 | – | –
C=C(C)C1CC=C(C)CC1 (centres unmarked) [Limonene] | > 1 | – | – | – | EC50 ([2]; Severe acute respiratory syndrome coronavirus 2, Vero 76, 72 h, read-out: EC50 SARS-Cov2): > 1000 µM
C=CC(C)(O)CCC=C(C)C (centres unmarked) [Linalool] | – | – | > 1000 | did not inhibit the SARS-CoV-2 at any significant rate; also recorded: Absence of activity | EC50 [2, 6]: > 1000 µM
Cc1coc2c1CCC(C)C2 (centres unmarked) [Menthofuran] | – | – | 506 ± 76.4 | – | EC50 [2, 6]: > 100 µM; EC50 [2, 7]: 154 ± 16.3 µM
CC1CCC(C(C)C)C(O)C1 (centres unmarked) [Menthol] | > 1 | > 1000 | – | did not inhibit the SARS-CoV-2 at any significant rate; also recorded: Absence of activity | –
CC(C)[C@@H]1CC[C@@H](C)CC1=O [Menthone] | > 1 | > 1000 | – | did not inhibit the SARS-CoV-2 at any significant rate; also recorded: Absence of activity | –
CC(C)=C1CC[C@@H](C)CC1=O [Pulegone] | – | – | > 1000 | – | EC50 [2, 6]: > 100 µM; EC50 [2, 7]: 196 ± 17.1 µM
CC1=CCC(O)(C(C)C)CC1 (centres unmarked) [Terpinen-4-ol] | > 1 | > 1000 | – | did not inhibit the SARS-CoV-2 at any significant rate; also recorded: Absence of activity | –
Cc1ccc(C(C)C)c(O)c1 [Thymol] | 0.509 ± 0.0315 | – | – | limited antiviral activity | rate of SARS-Cov-2 inhibition ([2]; infected Vero 76 cells, 72 h, concentration not given): 58.54 ± 10.45%
Cc1ccc(C(C)C)cc1 [p-Cymene] | > 1 | > 1000 | – | did not inhibit the SARS-CoV-2 at any significant rate; also recorded: Absence of activity | –
CC1=CC[C@@H](C(C)(C)O)CC1 [α-Terpineol] | > 1 | > 1000 | – | did not inhibit the SARS-CoV-2 at any significant rate; also recorded: Absence of activity | –
